Measured values taken from US11685746B2, “Heteroaryl compounds for treating Huntington's disease” (PTC THERAPEUTICS, INC., priority 2018, dated 2023).

Each compound was assayed on Endogenous Huntingtin Protein (assay: Endogenous Huntingtin Protein Assay (MSD plates, MW1 or MAB2166 capture antibody)). Settings: Table 1.
Assay type: cell-based
Outline: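 Sandwich MSD immunoassay: plates were coated overnight at 4° C with MW1 (expanded polyQ) or MAB2166 capture antibody at 1 μg/mL, then blocked with 5% BSA. Samples were bound overnight at 4° C, followed by rabbit mAb #5656S and SULFO-TAG anti-rabbit detection, each at 0.25 μg/mL for 1 h at room temperature. Signal was read by electrochemiluminescence.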
With `CN(c1nc2sc(-c3ccc(-c4cn[nH]c4)nc3)nc2s1)C1CC(C)(C)NC(C)(C)C1` [Compound 135, N-methyl-5-[6-(1H-pyrazol-4-yl)pyridin-3-yl]-N-(2,2,6,6-tetramethylpiperidin-4-yl)[1,3]thiazolo[5,4-d][1,3]thiazol-2-amine] the IC50 was 100 to 500 nM. In the case of `CN(c1nc2sc(-c3ccc(-c4cn[nH]c4)c4cc[nH]c34)nc2s1)C1CC(C)(C)NC(C)(C)C1` [Compound 128, N-methyl-5-[4-(1H-pyrazol-4-yl)-1H-indol-7-yl]-N-(2,2,6,6-tetramethylpiperidin-4-yl)[1,3]thiazolo[5,4-d][1,3]thiazol-2-amine], the IC50 is reported as ≤ 100 nM. With `Oc1cc(-c2cn[nH]c2)ccc1-c1nc2sc(NC3CC4CCC(C3)N4)nc2s1` (stereo not drawn) [Compound 13, 2-{5-[(3-exo)-8-azabicyclo[3.2.1]oct-3-ylamino][1,3]thiazolo[5,4-d][1,3]thiazol-2-yl}-5-(1H-pyrazol-4-yl)phenol] the IC50 was ≤ 100 nM. With `CC1CC(N(C)c2nc3sc(-c4ccc(-c5cn[nH]c5)c5nc[nH]c45)nc3s2)CCN1C` (stereo not shown) [Compound 112, N-(1,2-dimethylpiperidin-4-yl)-N-methyl-5-[4-(1H-pyrazol-4-yl)-1H-benzimidazol-7-yl][1,3]thiazolo[5,4-d][1,3]thiazol-2-amine] the IC50 was ≤ 100 nM. In the case of `CN(c1nc2sc(-n3ccc(-c4cn[nH]c4)cc3=O)nc2s1)C1CCNCC1` [Compound 188, 1-{5-[methyl(piperidin-4-yl)amino][1,3]thiazolo[5,4-d][1,3]thiazol-2-yl}-4-(1H-pyrazol-4-yl)pyridin-2(1H)-one], the IC50 is reported as ≤ 100 nM. For `[2H]C([2H])([2H])n1cc(-c2cnc(-c3nc4sc(N(C)C5CCNCC5)nc4s3)c(O)c2)cn1` [Compound 51, 2-{5-[methyl(piperidin-4-yl)amino][1,3]thiazolo[5,4-d][1,3]thiazol-2-yl}-5-[1-(^2H3)methyl-1H-pyrazol-4-yl]pyridin-3-ol], the IC50 was ≤ 100 nM. `Cn1cc2cc(-c3nc4sc(N5CC6(CCNCC6)C5)nc4s3)cc(F)c2n1` [Compound 176, 5-[5-(2,7-diazaspiro[3.5]nonan-2-yl)[1,3]thiazolo[5,4-d][1,3]thiazol-2-yl]-7-fluoro-2-methyl-2H-indazole] was tested, and the IC50 was 100 to 500 nM. In the case of `C[C@@H]1C[C@@H](Oc2nc3sc(-c4ncc(-c5cn[nH]c5)c5nc[nH]c45)nc3s2)CCN1` [Compound 83, 4-(5-{[(2R,4S)-2-methylpiperidin-4-yl]oxy}[1,3]thiazolo[5,4-d][1,3]thiazol-2-yl)-7-(1H-pyrazol-4-yl)-3H-imidazo[4,5-c]pyridine], the IC50 is reported as ≤ 100 nM. For `CN1C[C@@H]2CN(c3nc4sc(-c5ccc(-c6cn[nH]c6)cc5O)nc4s3)C[C@@H]2C1` [Compound 211, 2-{5-[(3aR,6aS)-5-methylhexahydropyrrolo[3,4-c]pyrrol-2(1H)-yl][1,3]thiazolo[5,4-d][1,3]thiazol-2-yl}-5-(1H-pyrazol-4-yl)phenol], the IC50 was 1000 to 3000 nM. In the case of `CN(c1nc2sc(-c3ncc(-c4cn[nH]c4)c4cc[nH]c34)nc2s1)C1CC(C)(C)NC(C)(C)C1` [Compound 159, N-methyl-5-[4-(1H-pyrazol-4-yl)-1H-pyrrolo[2,3-c]pyridin-7-yl]-N-(2,2,6,6-tetramethylpiperidin-4-yl)[1,3]thiazolo[5,4-d][1,3]thiazol-2-amine], the IC50 is reported as ≤ 100 nM. `CN(c1nc2sc(-n3ccc(-c4cn[nH]c4)cc3=O)nc2s1)[C@@H]1C[C@H]2CC[C@@H](C1)N2` [Compound 195, 1-(5-{[(1R,3s,5S)-8-azabicyclo[3.2.1]octan-3-yl](methyl)amino}[1,3]thiazolo[5,4-d][1,3]thiazol-2-yl)-4-(1H-pyrazol-4-yl)pyridin-2(1H)-one] was tested, and the IC50 was ≤ 100 nM. With `CC(C)(C)NC1CCN(c2nc3sc(-n4ccc(-c5cn[nH]c5)cc4=O)nc3s2)C1` (stereo not shown) [Compound 151, 1-{5-[3-(tert-butylamino)pyrrolidin-1-yl][1,3]thiazolo[5,4-d][1,3]thiazol-2-yl}-4-(1H-pyrazol-4-yl)pyridin-2(1H)-one] the IC50 was 100 to 500 nM. Compound `CN(c1nc2sc(-c3ncc(-c4cn[nH]c4)cn3)nc2s1)C1CCNCC1` [Compound 201, N-methyl-N-(piperidin-4-yl)-5-[5-(1H-pyrazol-4-yl)pyrimidin-2-yl][1,3]thiazolo[5,4-d][1,3]thiazol-2-amine] has an IC50 of 500 to 1000 nM. In the case of `Cn1cc2cc(-c3cn4nc(C5=CC6CCC(C5)N6)sc4n3)cc(C#N)c2n1` (stereo not shown) [Compound 33, 5-[2-(8-azabicyclo[3.2.1]oct-2-en-3-yl)imidazo[2,1-b][1,3,4]thiadiazol-6-yl]-2-methyl-2H-indazole-7-carbonitrile], the IC50 is reported as 1000 to 3000 nM. In the case of `Cc1nccn1-c1cnc(-c2nc3sc(N(C)[C@H]4C[C@]5(C)CC[C@](C)(C4)N5)nc3s2)cn1` [Compound 67, N-[(1R,3s,5S)-1,5-dimethyl-8-azabicyclo[3.2.1]octan-3-yl]-N-methyl-5-[5-(2-methyl-1H-imidazol-1-yl)pyrazin-2-yl][1,3]thiazolo[5,4-d][1,3]thiazol-2-amine], the IC50 is reported as ≤ 100 nM. With `CN(c1nc2sc(-n3ccc(Br)cc3=O)nc2s1)[C@@H]1C[C@H]2CC[C@@H](C1)N2` [Compound 171, 1-(5-{[(1R,3s,5S)-8-azabicyclo[3.2.1]octan-3-yl](methyl)amino}[1,3]thiazolo[5,4-d][1,3]thiazol-2-yl)-4-bromopyridin-2(1H)-one] the IC50 was ≤ 100 nM. In the case of `CN(c1nc2sc(-c3ncc(-c4cn[nH]c4)cc3O)nc2s1)C1CC(C)(C)NC(C)(C)C1` [Compound 42, 2-{5-[methyl(2,2,6,6-tetramethylpiperidin-4-yl)amino][1,3]thiazolo[5,4-d][1,3]thiazol-2-yl}-5-(1H-pyrazol-4-yl)pyridin-3-ol], the IC50 is reported as ≤ 100 nM. `[2H]C([2H])([2H])n1cc(-c2ccc(-c3nc4sc(N(C)C5CCNCC5)nc4s3)c(O)c2)cn1` [Compound 39, 2-{5-[methyl(piperidin-4-yl)amino][1,3]thiazolo[5,4-d][1,3]thiazol-2-yl}-5-[1-(^2H3)methyl-1H-pyrazol-4-yl]phenol] was tested, and the IC50 was ≤ 100 nM. `CN(c1nc2sc(-c3ccc(-c4cn[nH]c4)c4cn[nH]c34)nc2s1)C1CC(C)(C)NC(C)(C)C1` [Compound 107, N-methyl-5-[4-(1H-pyrazol-4-yl)-1H-indazol-7-yl]-N-(2,2,6,6-tetramethylpiperidin-4-yl)[1,3]thiazolo[5,4-d][1,3]thiazol-2-amine] was tested, and the IC50 was ≤ 100 nM. In the case of `Cc1ncc(-c2cnc(-c3nc4sc(N(C)C5CCNCC5)nc4s3)c(O)c2)s1` [Compound 222, 2-{5-[methyl(piperidin-4-yl)amino][1,3]thiazolo[5,4-d][1,3]thiazol-2-yl}-5-(2-methyl-1,3-thiazol-5-yl)pyridin-3-ol], the IC50 is reported as ≤ 100 nM. `CCn1cc(-c2cnc(-c3nc4sc(N(C)[C@H]5CCN[C@H](C)C5)nc4s3)c3[nH]ccc23)cn1` [Compound 90, 5-[4-(1-ethyl-1H-pyrazol-4-yl)-1H-pyrrolo[2,3-c]pyridin-7-yl]-N-methyl-N-[(2R,4S)-2-methylpiperidin-4-yl][1,3]thiazolo[5,4-d][1,3]thiazol-2-amine] was tested, and the IC50 was ≤ 100 nM. With `CN(c1nc2sc(-c3ncc(-c4ccn(C)c(=O)c4)cc3O)nc2s1)[C@@H]1C[C@H]2CC[C@@H](C1)N2` [Compound 191, 6-(5-{[(1R,3s,5S)-8-azabicyclo[3.2.1]octan-3-yl](methyl)amino}[1,3]thiazolo[5,4-d][1,3]thiazol-2-yl)-5-hydroxy-1′-methyl[3,4′-bipyridin]-2′(1′H)-one] the IC50 was ≤ 100 nM. In the case of `CN(c1nc2sc(-c3ncc(-c4cnsc4)cc3O)nc2s1)C1CCNCC1` [Compound 216, 2-{5-[methyl(piperidin-4-yl)amino][1,3]thiazolo[5,4-d][1,3]thiazol-2-yl}-5-(1,2-thiazol-4-yl)pyridin-3-ol], the IC50 is reported as ≤ 100 nM. `CC(C)(C)NC1CCN(c2nc3sc(-c4ncc(-c5cn[nH]c5)cn4)nc3s2)C1` (stereo not shown) [Compound 150, N-tert-butyl-1-{5-[5-(1H-pyrazol-4-yl)pyrimidin-2-yl][1,3]thiazolo[5,4-d][1,3]thiazol-2-yl}pyrrolidin-3-amine] showed an IC50 of 1000 to 3000 nM. `Cn1cc2cc(-c3nc4sc(C5CCNCC5)nc4s3)cc(F)c2n1` [Compound 11, 7-fluoro-2-methyl-5-[5-(piperidin-4-yl)[1,3]thiazolo[5,4-d][1,3]thiazol-2-yl]-2H-indazole] was tested, and the IC50 was ≤ 100 nM. Work on `CN(c1nc2sc(-c3ncc(-n4cc(F)cn4)cc3O)nc2s1)C1CCNCC1` [Compound 62, 5-(4-fluoropyrazol-1-yl)-2-[5-[methyl(4-piperidyl)amino]thiazolo[5,4-d]thiazol-2-yl]pyridin-3-ol] yielded an IC50 of 1000 to 3000 nM. With `[2H]C([2H])([2H])n1cc(-c2ccc(-c3nc4sc(N(C)C5CCN(C)CC5)nc4s3)c(O)c2)cn1` [Compound 58, 2-{5-[methyl(1-methylpiperidin-4-yl)amino][1,3]thiazolo[5,4-d][1,3]thiazol-2-yl}-5-[1-(^2H3)methyl-1H-pyrazol-4-yl]phenol] the IC50 was ≤ 100 nM. For `CN(c1nc2sc(-n3cnc(-c4cn[nH]c4)cc3=O)nc2s1)[C@@H]1C[C@H]2CC[C@@H](C1)N2C` [Compound 153, 3-(5-{methyl[(1R,3s,5S)-8-methyl-8-azabicyclo[3.2.1]octan-3-yl]amino}[1,3]thiazolo[5,4-d][1,3]thiazol-2-yl)-6-(1H-pyrazol-4-yl)pyrimidin-4(3H)-one], the IC50 was ≤ 100 nM. With `CN(c1nc2sc(-n3ccc(-c4cn[nH]c4)cc3=O)nc2s1)[C@H]1C[C@]2(C)CC[C@](C)(C1)N2` [Compound 146, 1-(5-{[(1R,3s,5S)-1,5-dimethyl-8-azabicyclo[3.2.1]octan-3-yl](methyl)amino}[1,3]thiazolo[5,4-d][1,3]thiazol-2-yl)-4-(1H-pyrazol-4-yl)pyridin-2(1H)-one] the IC50 was ≤ 100 nM. With `CCCN1CCC(N(C)c2nc3sc(-c4ncc(-c5cn[nH]c5)cc4O)nc3s2)CC1` [Compound 206, 2-{5-[methyl(1-propylpiperidin-4-yl)amino][1,3]thiazolo[5,4-d][1,3]thiazol-2-yl}-5-(1H-pyrazol-4-yl)pyridin-3-ol] the IC50 was ≤ 100 nM. `CN(c1nc2sc(-c3cnc(-n4ccnc4)cn3)nc2s1)[C@H]1C[C@]2(C)CC[C@](C)(C1)N2` [Compound 103, N-[(1R,3s,5S)-1,5-dimethyl-8-azabicyclo[3.2.1]octan-3-yl]-5-[5-(1H-imidazol-1-yl)pyrazin-2-yl]-N-methyl[1,3]thiazolo[5,4-d][1,3]thiazol-2-amine] was tested, and the IC50 was ≤ 100 nM.
